Data as given in EP0262903A2, “New acyl derivatives of 20-modified tylosin and desmycosin compounds” (priority 1986, dated 1988).
Values after ≈ are worked out from the molar mass of the structure shown. Where two headings read alike, the source gives them in different places.

How the values were obtained:
[1] = system: Streptococcus pyogenes C203; assay: ED50 in mice experimentally infected with S. pyogenes C203; assay type: in vivo
Method: The formula 1 compounds have shown in vivo antimicrobial activity against experimentally-induced infections in laboratory animals. When two doses of test compound were administered to mice experimentally infected with S. pyogenes C203, the activity observed was measured as an ED₅₀ value [effective dose in mg/kg to protect 50% of the test animals: see Warren Wick, et 5 al., J. Bacteriol. 81, 233-235 (1961)].

[2] = system: Klebsiella pneumoniae X68; assay: MIC, standard agar-dilution assay; assay type: cell-based
Method: (§1) The MIC's in Table II were determined by standard agar-dilution assays. The MIC's in Table III were obtained using conventional broth-dilution microtiter tests.

[3] = system: Staphylococcus epidermidis 222; assay: MIC, standard agar-dilution assay; assay type: cell-based
Method: as §1

[4] = system: Staphylococcus aureus V41; assay: MIC, standard agar-dilution assay; assay type: cell-based
Method: as §1

[5] = system: Haemophilus influenzae C.L.; assay: MIC, standard agar-dilution assay; assay type: cell-based
Method: as §1

Escherichia coli EC14 = assay: MIC, standard agar-dilution assay; assay type: cell-based
Method: as §1

[6] = system: Staphylococcus aureus X400; assay: MIC, standard agar-dilution assay; assay type: cell-based
Method: as §1

[7] = system: Pseudomonas aeruginosa X239; assay: MIC, standard agar-dilution assay; assay type: cell-based
Method: as §1

[8] = system: Streptococcus pneumoniae Park I; assay: MIC, standard agar-dilution assay; assay type: cell-based
Method: as §1

[9] = system: Haemophilus influenzae 76; assay: MIC, standard agar-dilution assay; assay type: cell-based
Method: as §1

[10] = system: Streptococcus faecalis 2041; assay: MIC, standard agar-dilution assay; assay type: cell-based; conditions: Enterococcus faecalis
Method: as §1

[11] = system: Staphylococcus epidermidis EPI1; assay: MIC, standard agar-dilution assay; assay type: cell-based
Method: as §1

[12] = system: Staphylococcus aureus X1.1; assay: MIC, standard agar-dilution assay; assay type: cell-based
Method: as §1

[13] = system: Streptococcus faecalis X66; assay: MIC, standard agar-dilution assay; assay type: cell-based; conditions: Enterococcus faecalis
Method: as §1

[14] = system: Streptococcus pyogenes C203; assay: MIC, standard agar-dilution assay; assay type: cell-based
Method: as §1

[15] = system: Staphylococcus aureus S13E; assay: MIC, standard agar-dilution assay; assay type: cell-based
Method: as §1

[16] = Staphylococcus epidermidis 222, agar dilution, read-out: MIC
[17] = Staphylococcus aureus V41, Penicillin-resistant strain, agar dilution, read-out: MIC
[18] = Haemophilus influenzae C.L., Ampicillin-sensitive strain, agar dilution, read-out: MIC
[19] = Escherichia coli EC14, agar dilution, read-out: MIC
[20] = Staphylococcus aureus X400, Methicillin-resistant strain, agar dilution, read-out: MIC
[21] = Pseudomonas aeruginosa X239, agar dilution, read-out: MIC
[22] = Streptococcus pneumoniae Park I, agar dilution, read-out: MIC
[23] = Haemophilus influenzae 76, Ampicillin-resistant strain, agar dilution, read-out: MIC
[24] = Streptococcus faecalis 2041, agar dilution, read-out: MIC
[25] = Staphylococcus epidermidis EPI1, agar dilution, read-out: MIC
[26] = Staphylococcus aureus X1.1, agar dilution, read-out: MIC
[27] = Streptococcus faecalis X66, agar dilution, read-out: MIC
[28] = Streptococcus pyogenes C203, agar dilution, read-out: MIC

Row | SMILES | MIC ([2]; Klebsiella pneumoniae, X68) [µg/mL] | MIC [3, 16] [µg/mL] | MIC [4, 17] [µg/mL] | MIC [5, 18] [µg/mL] | MIC (Escherichia coli EC14; [19]) [µg/mL] | MIC [6, 20] [µg/mL] | MIC [7, 21] [µg/mL] | MIC [8, 22] [µg/mL] | MIC [9, 23] [µg/mL] | MIC [10, 24] [µg/mL] | MIC [11, 25] [µg/mL] | MIC [12, 26] [µg/mL] | MIC [13, 27] [µg/mL] | MIC [14, 28] [µg/mL] | MIC [15] [µg/mL] | other results
1 | CCC1OC(=O)CC(O)C(C)C(OC2OC(C)C(O)C(N(C)C)C2O)C(CCOc2ccccc2)CC(C)C(=O)C=CC(C)=CC1COC1OC(C)C(OC(=O)CNCc2ccccc2)C(OC)C1OC (stereo not shown) [Compound 11, 4ʹʹ-O-(N-Benzylaminoacetyl)-20-DH-20-O-phenyl-desmycosin] | > 128 | 2 (≈ 2.01 µM) | 2 (≈ 2.01 µM) | 128 (≈ 128 µM) | > 128 | 2 (≈ 2.01 µM) | > 128 | 2 (≈ 2.01 µM) | 64 (≈ 64.2 µM) | 8 (≈ 8.02 µM) | 2 (≈ 2.01 µM) | 1 (≈ 1 µM) | 8 (≈ 8.02 µM) | 2 (≈ 2.01 µM) | 2 (≈ 2.01 µM) | ED50 ([1]; C203, mice, oral, two doses given 1 and 4 hours post-infection, dose protecting 50% of the test animals, read-out: ED50 Oral): 14.4 mg/kg; ED50 ([1]; C203, sc, mice, subcutaneous, two doses given 1 and 4 hours post-infection, dose protecting 50% of the test animals, read-out: ED50 Subcutaneous): 5.7 mg/kg
2 | CCC(C)CN(CC)CCC1CC(C)C(=O)C=CC(C)=CC(COC2OC(C)C(OC(C)=O)C(OC)C2OC)C(CC)OC(=O)CC(O)C(C)C1OC1OC(C)C(O)C(N(C)C)C1O (stereo not shown) [Compound 17, 4ʹʹ-O-Acetyl-20-DH-20-deoxy-20-[N-ethyl-N-(2-methylbutyl)amino]desmycosin] |  | 4 (≈ 4.38 µM) | 8 (≈ 8.76 µM) | 64 (≈ 70.1 µM) | > 128 | 4 (≈ 4.38 µM) | > 128 | 4 (≈ 4.38 µM) | 128 (≈ 140 µM) | 64 (≈ 70.1 µM) | 8 (≈ 8.76 µM) | 8 (≈ 8.76 µM) | 64 (≈ 70.1 µM) | 4 (≈ 4.38 µM) | 8 (≈ 8.76 µM) | MIC ([2]; Klebsiella pneumoniae X68, agar dilution, read-out: MIC): > 128 µg/mL
3 | CCC1OC(=O)CC(O)C(C)C(OC2OC(C)C(O)C(N(C)C)C2O)C(CCOc2ccccc2)CC(C)C(=O)C=CC(C)=CC1COC1OC(C)C(OC(=O)C(NC(=O)OC(C)(C)C)c2ccccc2)C(OC)C1OC [Compound 6, 4ʹʹ-O-(N-BOC)-D-phenylglycyl-20-DH-20-O-phenyl-desmycosin] | > 128 | 8 (≈ 7.38 µM) | 8 (≈ 7.38 µM) | > 128 | > 128 | 8 (≈ 7.38 µM) | > 128 | 16 (≈ 14.8 µM) | > 128 | > 128 | 16 (≈ 14.8 µM) | 8 (≈ 7.38 µM) | > 128 | 8 (≈ 7.38 µM) | 16 (≈ 14.8 µM) | 
4 | CCC1OC(=O)CC(O)C(C)C(OC2OC(C)C(O)C(N(C)C)C2O)C(CCOc2ccccc2)CC(C)C(=O)C=CC(C)=CC1COC1OC(C)C(OC(=O)Cc2ccccc2)C(OC)C1OC (stereo not shown) [Compound 4, 20-DH-20-O-Phenyl-4ʹʹ-O-(phenylacetyl)-desmycosin] | > 128 |  |  |  |  |  |  |  |  |  |  |  |  |  | 2 (≈ 2.07 µM) | ED50 ([1]; C203, po, read-out: ED50 Oral): 14.2 mg/kg; ED50 ([1]; C203, sc, read-out: ED50 Subcutaneous): > 10 mg/kg; MIC ([3]; Staphylococcus epidermidis, 222): 1 µg/mL (≈ 1.03 µM); MIC ([4]; Staphylococcus aureus, V41): 2 µg/mL (≈ 2.07 µM); MIC ([5]; Haemophilus influenzae): 128 µg/mL (≈ 132 µM); MIC (Escherichia coli EC14; Escherichia coli, EC14): > 128 µg/mL; MIC ([6]; Staphylococcus aureus, X400): 2 µg/mL (≈ 2.07 µM); MIC ([7]; Pseudomonas aeruginosa, X239): > 128 µg/mL; MIC ([8]; Streptococcus pneumoniae): 4 µg/mL (≈ 4.13 µM); MIC ([9]; Haemophilus influenzae, 76): 128 µg/mL (≈ 132 µM); MIC [10]; 2041: 64 µg/mL (≈ 66.1 µM); MIC ([11]; Staphylococcus epidermidis, EPI1): 2 µg/mL (≈ 2.07 µM); MIC ([12]; Staphylococcus aureus, X1.1): 2 µg/mL (≈ 2.07 µM); MIC ([13]; X66): 16 µg/mL (≈ 16.5 µM); MIC ([14]; Streptococcus pyogenes, C203): 2 µg/mL (≈ 2.07 µM)
5 | CCC1OC(=O)CC(O)C(C)C(OC2OC(C)C(OC(C)=O)C(N(C)C)C2OC(C)=O)C(CCOc2ccccc2)CC(C)C(=O)C=CC(C)=CC1COC1OC(C)C(OC(C)=O)C(OC)C1OC (stereo not shown) [Compound 1, 2ʹ,4ʹ,4ʹʹ-Tri-O-acetyl-20-DH-20-O-phenyl-desmycosin] | > 128 | 1 (≈ 1.02 µM) | 2 (≈ 2.05 µM) | > 128 | > 128 | 4 (≈ 4.1 µM) | > 128 | 8 (≈ 8.2 µM) | > 128 | 128 (≈ 131 µM) | 4 (≈ 4.1 µM) | 4 (≈ 4.1 µM) | 64 (≈ 65.6 µM) | 1 (≈ 1.02 µM) | 4 (≈ 4.1 µM) | 
